Results taken from paper PMC10096376, “Insecticidal and Synergistic Potential of Three Monoterpenoids against the Yellow Fever Mosquito, Aedes aegypti (Diptera: Culicidae), and the House Fly, Musca domestica (Diptera: Muscidae)” (Molecules, 2023).
Several values for one entry are separate records, joined by “and”; a condition that tells them apart may be missing. Equal values may be shown once. Read-outs that look alike come from different tables or passages of the source.

How the values were obtained:
rat [1] = conditions: cited from earlier work
acetylcholinesterase [2] = molecular target: acetylcholinesterase (Musca domestica, UniProt Q7YWJ9); assay: In vitro inhibition of acetylcholinesterase (Ellman), head homogenate; assay type: biochemical
acetylcholinesterase (Musca domestica, UniProt Q7YWJ9), sequence (Q7YWJ9 81-660): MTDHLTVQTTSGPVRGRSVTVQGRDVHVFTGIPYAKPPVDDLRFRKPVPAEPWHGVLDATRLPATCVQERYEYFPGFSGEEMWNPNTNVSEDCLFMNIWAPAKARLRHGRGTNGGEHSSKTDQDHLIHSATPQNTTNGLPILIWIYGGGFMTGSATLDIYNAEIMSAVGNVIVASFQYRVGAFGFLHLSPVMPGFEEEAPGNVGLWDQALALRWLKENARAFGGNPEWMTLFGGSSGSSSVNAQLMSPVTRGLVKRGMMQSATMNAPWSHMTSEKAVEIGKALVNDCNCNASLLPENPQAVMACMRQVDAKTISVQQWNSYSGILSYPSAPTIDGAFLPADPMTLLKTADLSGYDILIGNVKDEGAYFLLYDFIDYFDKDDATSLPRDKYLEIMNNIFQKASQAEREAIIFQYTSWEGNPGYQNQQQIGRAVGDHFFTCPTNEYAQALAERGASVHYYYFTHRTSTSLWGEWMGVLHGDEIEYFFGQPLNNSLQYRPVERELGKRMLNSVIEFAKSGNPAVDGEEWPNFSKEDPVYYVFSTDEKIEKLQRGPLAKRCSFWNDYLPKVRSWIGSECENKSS
Protocol: (§1) Acetylcholinesterase inhibition was conducted on homogenates of whole-body Ae. aegypti and M. domestica heads using Ellman’s method. For Ae. aegypti, 10 whole female adults were placed in 2 mL microcentrifuge screw cap tubes with 3–5.2 mm zircon/silica beads and homogenized in 500 μL of sodium phosphate buffer (100 mM, pH 7.8) using a Precellys Evolution bead beater (Bertin Corp., Rockville, MD, USA) set to two 15-s pulses of 5600 rpm. Afterward, 500 μL of Triton X-100 buffer (100 mM sodium phosphate, pH 7.8, 0.6% Triton X-100) was added to each tube (final Triton X-100 concentration: 0.3%), inverted several times to mix up the sample, and then centrifuged at 10,000× g for 4 min at 4 °C. The supernatant was used as the enzyme source. The same process was carried out with M. domestica, except three heads were processed in a 1000:1000 μL sodium phosphate buffer and Triton X-100 buffer in the same manner as just described.
Concentration responses were conducted in the wells of a 96-well, clear, flat-bottomed plate. Inhibitor solutions of methomyl or monoterpenoids were first dissolved in DMSO (dimethyl sulfoxide) and then diluted in sodium phosphate buffer (100 mM, pH 7.8, DMSO concentration of 1%). A volume of 10 μL of the inhibitor solution was added to each well, along with 90 μL of sodium phosphate buffer, and finally 10 μL of homogenate. This was incubated on a plate shaker at 400 rpm for 10 min at room temperature. The final concentrations for methomyl were 100 μM, 10 μM, 1 μM, 100 nM, 10 nM, 1 nM, and 0 nM. For the monoterpenoids, the same range was used except the top concentration was 1 mM and the bottom non-zero concentration was 10 nM. The final concentration of DMSO in all wells was 0.09%.
After the 10-min incubation, 100 μL of Ellman’s reagent prepared in sodium phosphate buffer and each corresponding inhibitor concentration were added to the wells using a multichannel pipette.
(§2) Dose responses were modeled via probit analysis, and their resulting estimates were obtained. […] A control correction option (OPTC command) was used to account for responses to the vehicle control treatments. Co-toxicity values were calculated by the method of [29]. A co-toxicity factor of >+20 signifies potentiation, <−20 antagonism, and −20 to +20 additive.

rat [3] = conditions: in vivo; cited from earlier work
Aedes aegypti [4] = conditions: for 1-h knockdown Co-Toxicity Factor / 24-h mortality Co-Toxicity Factor / 48-h mortality Co-Toxicity Factor: >+20 potentiation, <−20 antagonism, −20 to +20 additive
Protocol: (§3) For Ae. aegypti, synergism assays were performed similar to the topical applications described previously, with the following modifications: 2 doses (2 µg/mosquito and 10 µg/mosquito) of each monoterpenoid were applied as synergists, similar to previous studies exploring the synergistic potential of natural products in combination with an intermediate dose-level of insecticide alone.
(§4) Mosquitoes were transferred to deli cups and kept at a controlled temperature and humidity (the same conditions as described for the topical application of insecticides and monoterpenoids alone). Again, a minimum of 3 separate rearing cohorts were used among replicates of each dose combination.
as §2

[5] = cited from earlier work
[6] = under a mercury lamp; cited from earlier work
Aedes aegypti [7] = assay: Co-toxicity assay with permethrin (topical); conditions: for 1-h knockdown Co-Toxicity Factor / 24-h mortality Co-Toxicity Factor: >+20 potentiation, <−20 antagonism, −20 to +20 additive
Protocol: as §3, §4, §2

Musca domestica [8] = assay: Co-toxicity assay with permethrin (topical); assay type: in vivo
Protocol: […]. Each dose was formulated in a total volume of 1.5 mL of acetone. A dose of permethrin that produced approximately 50% mortality (18 ng) was used as the treatment. Female flies were sorted into groups of 20 per synergism assay and dosed as previously mentioned (i.e., the same way as in the topical toxicity assays). Flies were assessed for mortality at 24 h.

Musca domestica [9] = conditions: for LD10 (95% CI) / LD50 (95% CI) / LD90 (95% CI): 24 h, adult females, susceptible strain
Aedes aegypti [10] = conditions: for LD10 (95% CI) / LD50 (95% CI) / LD90 (95% CI): 24 h, topical, adult females, susceptible strain
rabbit = conditions: ref 32,33 (L-fenchone), 35,36 (Permethrin), 37 (Methomyl); cited from earlier work
acetylcholinesterase [11] = molecular target: T1, acetylcholinesterase (Aedes aegypti, UniProt Q6A2E2); assay: In vitro inhibition of acetylcholinesterase (Ellman), whole-body homogenate; assay type: biochemical; conditions: Ae. aegypti preparation, corrected for total protein; read-out: IC50 (95% CI)
T1 construct: The supernatant was used as the enzyme source; from tissue; host or cells: whole bodies of adult female Aedes aegypti, Orlando strain; Triton X-100 supernatant
T1 sequence (Q6A2E2 1-702): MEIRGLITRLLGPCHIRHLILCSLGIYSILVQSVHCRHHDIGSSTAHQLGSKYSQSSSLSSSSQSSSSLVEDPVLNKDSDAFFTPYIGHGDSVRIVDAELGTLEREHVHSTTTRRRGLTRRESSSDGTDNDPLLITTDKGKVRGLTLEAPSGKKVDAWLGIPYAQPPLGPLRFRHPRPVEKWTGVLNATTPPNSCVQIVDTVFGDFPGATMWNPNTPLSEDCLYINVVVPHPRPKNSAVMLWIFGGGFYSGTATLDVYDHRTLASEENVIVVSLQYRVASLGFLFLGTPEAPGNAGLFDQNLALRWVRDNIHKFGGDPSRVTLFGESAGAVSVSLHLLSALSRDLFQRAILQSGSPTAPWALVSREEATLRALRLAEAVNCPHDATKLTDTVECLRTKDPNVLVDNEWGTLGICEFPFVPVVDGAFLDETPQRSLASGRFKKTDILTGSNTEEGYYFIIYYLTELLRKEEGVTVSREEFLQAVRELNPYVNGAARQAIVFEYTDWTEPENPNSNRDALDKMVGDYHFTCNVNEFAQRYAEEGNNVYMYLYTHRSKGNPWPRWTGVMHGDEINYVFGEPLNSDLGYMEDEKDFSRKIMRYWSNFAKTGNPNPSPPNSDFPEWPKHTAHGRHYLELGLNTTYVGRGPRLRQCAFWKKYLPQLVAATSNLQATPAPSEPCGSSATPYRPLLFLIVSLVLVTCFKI
Protocol: as §1
Concentration responses were conducted in the wells of a 96-well, clear, flat-bottomed plate. Inhibitor solutions of methomyl or monoterpenoids were first dissolved in DMSO (dimethyl sulfoxide) and then diluted in sodium phosphate buffer (100 mM, pH 7.8, DMSO concentration of 1%). […]
Dose responses were modeled via probit analysis, and their resulting estimates were obtained. […] Co-toxicity values were calculated by the method of [29]. […]

[12] = animal and route not given; cited from earlier work
[13] = 10 μg synergist per Ae. aegypti
[14] = 10.2 μg PBO, 70 μg carvone, 190 μg menthone, 80 μg fenchone per fly
[15] = near-sublethal synergist dose + permethrin, >+20 potentiation, <−20 antagonism, −20 to +20 additive

SMILES: C=C(C)[C@@H]1CC=C(C)C(=O)C1 [Carvone, L-carvone]
- Dermal LD50 (rat [1]): >4000 (rt) mg compound per kg body weight
- inhibition of AChE (acetylcholinesterase [2]; at 1 mM, M. domestica preparation): 11.1 ± 2.9%
- Oral LD50 (rat [3]): 5400 (rt) mg compound per kg body weight
- 1-h% Mean Knockdown ± SEM, Synergist Alone (Aedes aegypti [4]; 2 μg applied): 5 ± 5%
- 24-h% Mean Mortality ± SEM, Synergist Alone (Aedes aegypti [4]; 2 μg applied): 5 ± 2.9%
- 48-h% Mean Mortality ± SEM, Synergist Alone (Aedes aegypti [4]; 2 μg applied): 5 ± 2.9%
- 1-h% Mean Knockdown ± SEM, Mixture (Aedes aegypti [4]; 2 μg synergist + methomyl 6 ng/mosquito): 96.7 ± 3.3%
- 1-h knockdown Co-Toxicity Factor (Aedes aegypti [4]; 2 μg synergist + methomyl): 4.5
- 24-h mortality Co-Toxicity Factor (Aedes aegypti [4]; 2 μg synergist + methomyl): 23
- 48-h mortality Co-Toxicity Factor (Aedes aegypti [4]; 2 μg synergist + methomyl): 24
- 1-h% Mean Knockdown ± SEM, Synergist Alone (Aedes aegypti [4]; 10 μg applied): 20 ± 5.8%
- 24-h% Mean Mortality ± SEM, Synergist Alone (Aedes aegypti [4]; 10 μg applied): 7.5 ± 2.5%
- 48-h% Mean Mortality ± SEM, Synergist Alone (Aedes aegypti [4]; 10 μg applied): 15 ± 2.9%
- 1-h% Mean Knockdown ± SEM, Mixture (Aedes aegypti [4]; 10 μg synergist + methomyl 6 ng/mosquito): 100 ± 0%
- 1-h knockdown Co-Toxicity Factor (Aedes aegypti [4]; 10 μg synergist + methomyl): −7
- 24-h mortality Co-Toxicity Factor (Aedes aegypti [4]; 10 μg synergist + methomyl): 28
- 48-h mortality Co-Toxicity Factor (Aedes aegypti [4]; 10 μg synergist + methomyl): 8
- times as effective a synergist of methomyl as PBO (Aedes aegypti [4]; 24-h mortality, 2 μg synergist): 1.7
- half-life ([5]; acidic conditions): ≤ 4.5 days
- half-life [6]: 0.96 to 1.16 days
- 1-h% Mean Knockdown ± SEM, Mixture (Aedes aegypti [7]; 2 μg synergist + permethrin 0.6 ng/mosquito): 100 ± 0%
- 1-h knockdown Co-Toxicity Factor (Aedes aegypti [7]; 2 μg synergist + permethrin): 23.5
- 24-h mortality Co-Toxicity Factor (Aedes aegypti [7]; 2 μg synergist + permethrin): 83
- 1-h% Mean Knockdown ± SEM, Synergist Alone (Aedes aegypti [7]; 2 μg synergist per Ae. aegypti): 5 ± 5%
- 24-h% Mean Mortality ± SEM, Synergist Alone (Aedes aegypti [7]; 2 μg synergist per Ae. aegypti): 5 ± 2.9%
- 1-h% Mean Knockdown ± SEM, Mixture (Aedes aegypti [7]; 10 μg synergist + permethrin 0.6 ng/mosquito): 100 ± 0%
- 1-h knockdown Co-Toxicity Factor (Aedes aegypti [7]; 10 μg synergist + permethrin): 4
- 24-h mortality Co-Toxicity Factor (Aedes aegypti [7]; 10 μg synergist + permethrin): 76
- 1-h% Mean Knockdown ± SEM, Synergist Alone (Aedes aegypti [7]; [13]): 20 ± 5.8%
- 24-h% Mean Mortality ± SEM, Synergist Alone (Aedes aegypti [7]; [13]): 7.5 ± 2.5%
- times as strong a synergist of permethrin as PBO (Aedes aegypti [7]; 24-h mortality, 2 μg synergist): 3.3
- 1-h% Mean Knockdown ± SEM, Synergist Alone (Musca domestica [8]; [14]): 16 ± 11.8%
- 24-h% Mean Mortality ± SEM, Synergist Alone (Musca domestica [8]; [14]): 0 ± 0%
- times as potent a synergist of permethrin as PBO (Musca domestica [8]; 24-h mortality): 1.2
- 1-h% Mean Knockdown ± SEM, Mixture (Musca domestica [8]; near-sublethal synergist dose (10.2 μg PBO, 70 μg carvone, 190 μg menthone, 80 μg fenchone) + permethrin 18 ng): 100 ± 0%
- 1-h knockdown Co-Toxicity Factor (Musca domestica [8]; [15]): 3.2
- 24-h mortality Co-Toxicity Factor (Musca domestica [8]; [15]): 65.6
- LD10 (95% CI) (Musca domestica [9]; topical): 3300 (3100–3400) b ng/mg body weight
- LD50 (95% CI) (Musca domestica [9]; topical): 4300 (4200–4400) b ng/mg body weight
- LD90 (95% CI) (Musca domestica [9]; topical): 5600 (5300–5900) b ng/mg body weight
- times as toxic as fenchone (Musca domestica [9]; at LD10): 2.7
- times as toxic as menthone (Musca domestica [9]; at LD10): 1.6
- times as toxic as fenchone (Musca domestica [9]; at LD50): 3.1
- times as toxic as menthone (Musca domestica [9]; at LD50): 1.6
- times as toxic as fenchone (Musca domestica [9]; at LD90): 3.6
- times as toxic as menthone (Musca domestica [9]; at LD90): 1.6
- LD10 (95% CI) (Aedes aegypti [10]): 3900 (1900–5200) b ng/mg body weight
- LD50 (95% CI) (Aedes aegypti [10]): 7300 (6700–7900) c ng/mg body weight
- LD90 (95% CI) (Aedes aegypti [10]): 14,200 (11,000–26,600) c ng/mg body weight
- times as toxic as fenchone (Aedes aegypti [10]; at LD10): about 1.9
- times as toxic as fenchone (Aedes aegypti [10]; at LD50): about 1.5
- times as toxic as fenchone (Aedes aegypti [10]; at LD90): about 3.0

SMILES: CNC(=O)ON=C(C)SC [Methomyl, methomyl, reference compound]
- inhibition at 100 µM (acetylcholinesterase [2]; at 100 µM, preparation not given, follows the M. domestica values, read-out: inhibition of AChE): 99.4 ± 0.1%
- Oral LD50 (rat [3]): 17–24 (rt) mg compound per kg body weight
- Dermal LD50 (rabbit): 5880 (rb) mg compound per kg body weight
- 1-h% Mean Knockdown ± SEM, Methomyl Alone (Aedes aegypti [4]; methomyl 6 ng/mosquito): 87.5 ± 9.5%
- 24-h% Mean Mortality ± SEM, Methomyl Alone (Aedes aegypti [4]; methomyl 6 ng/mosquito): 57.5 ± 25.3%
- 48-h% Mean Mortality ± SEM, Methomyl Alone (Aedes aegypti [4]; methomyl 6 ng/mosquito): 65 ± 21.8%
- IC50 (acetylcholinesterase [11]): 2500 nM and 1700 nM
- aerobic soil half-life [5]: approximately 14 d
- LD50 (Musca domestica [9]; topical, sufficient toxicity not observed at highest doses applied): > 100 ng
- LD10 (95% CI) (Aedes aegypti [10]): 0.97 (0.27–1.6) a ng/mg body weight
- LD50 (95% CI) (Aedes aegypti [10]): 2.7 (1.6–4.3) b ng/mg body weight
- LD90 (95% CI) (Aedes aegypti [10]): 7.55 (4.7–22.5) b ng/mg body weight

SMILES: CC1(C)C(C=C(Cl)Cl)C1C(=O)OCc1cccc(Oc2ccccc2)c1 (centres unmarked) [Permethrin, reference compound]
- Oral LD50 (rat [3]): 430–4000 (rt) mg compound per kg body weight
- Dermal LD50 (rabbit): 2000 (rb) mg compound per kg body weight
- aerobic soil half-life [5]: 11.6 to 113 days
- 1-h% Mean Knockdown ± SEM, Permethrin Alone (Aedes aegypti [7]; permethrin 0.6 ng/mosquito): 76 ± 9.2% and 87.5 ± 6.3%
- 24-h% Mean Mortality ± SEM, Permethrin Alone (Aedes aegypti [7]; permethrin 0.6 ng/mosquito): 27.5 ± 4.8%
- 24-h% Mean Mortality ± SEM, Permethrin Alone (Aedes aegypti [7]; permethrin 0.6 ng/mosquito, listed as permethrin): 36 ± 6%
- 1-h% Mean Knockdown ± SEM, Permethrin Alone (Musca domestica [8]; permethrin 18 ng): 80 ± 7.3%
- 24-h% Mean Mortality ± SEM, Permethrin Alone (Musca domestica [8]; permethrin 18 ng): 58 ± 10.1%
- LD10 (95% CI) (Musca domestica [9]; topical): 0.46 (0.37–0.56) a ng/mg body weight
- LD50 (95% CI) (Musca domestica [9]; topical): 0.84 (0.79–0.93) a ng/mg body weight
- LD90 (95% CI) (Musca domestica [9]; topical): 1.5 (1.4–1.7) a ng/mg body weight
- LD10 (95% CI) (Aedes aegypti [10]): 0.23 (0.12–0.33) a ng/mg body weight
- LD50 (95% CI) (Aedes aegypti [10]): 0.58 (0.45–0.71) a ng/mg body weight
- LD90 (95% CI) (Aedes aegypti [10]): 1.41 (1.08–2.24) a ng/mg body weight

SMILES: Cc1ccc(C(C)C)cc1O [carvacrol]
- LD50 [12]: 2000 to 3000 mg/kg

SMILES: CC(C)=C1CC[C@@H](C)CC1=O [pulegone]
- LD50 [12]: 2000 to 3000 mg/kg
